This note sets out measurements from patent US20250152601A1, “Compositions and Methods for the Treatment of Sexual Dysfunctions” (The Jonathan Hurt Living Trust, priority 2022, published 2025).

The nature of data set [1]: Non-sexual side effects associated with ingesting treatment substances. The following applies: after ingesting the treatment substance.
The test system of data set [2] is ejaculation/orgasm. Description: Ejaculation scores D (strength of the muscle contractions during ejaculation) and DE (ease to achieve ejaculation), incl. FE/FO. Format: in vivo, human. Conditions: prolonged daily ingestion (D-Asp 3000 mg/day about a week; bupropion per prescription, following months).
Method: Variations in TSF and other sexual responses were noticed after ingesting a treatment substance, and additional scores to describe these responses were recorded in some examples. In some examples the C score for TSF was localized only to the head (“glands”) of the penis when one or more C score measurements were taken prior to attempted or achieved ejaculation/orgasm. […] In some examples after ingesting a treatment substance, the speed of B score decrease from the first muscle contraction to the last muscle contraction of ejaculation was recorded as the “BS” score using terms such as “IS” for instantaneous loss of TSF where a B score of 0.0 occurred at or immediately after the first muscle contraction, “FT” for a fast loss of TSF, and “SL” for a slow loss of TSF. In some examples the minimum B score measured at or near the last muscle contraction was recorded as the “BM” score using the same scoring parameters as for the B score. […] In some examples the ease to achieve ejaculation was recorded as the “DE” score, with a score of 1.0 being ejaculation achieved with some difficulty, 2.0 being a typical/normal ease of ejaculation, and a 3.0 being of the ease of ejaculation was promoted. […] When a score (e.g., C, CT, A, B, BM, BS, D, DE) was not recorded or not applicable then “N/A” is listed for that score and that score was not used (no numeric score) for mathematical evaluations in such an occurrence.
Dietary vitamins and nutritional supplements were ingested about 7:00 AM to about 10:30 AM with coffee, and coffee consumption ended by about 12:00 PM or earlier. No food was ingested during the day before measurements as only one meal a day is typically eaten in the evening.
Measurements were made in the morning from about 7:30 AM until about 11:30 AM.
Dietary vitamins and nutritional supplements were ingested about 7:00 AM to about 10:30 AM with coffee, and coffee consumption ended by about 12:00 PM or earlier.
No food, dietary vitamins or nutritional supplements were ingested the day of the measurements until after the measurements were taken.
The subject of data set [3] is tactile sexual function (TSF). Nature of the data set: Self-measured tactile sexual function (TSF) scores C, CT, A, B, BM, BS after ingesting treatment substance(s).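 Note: Self-rated by the single male inventor (about 65 kg) after oral intake, capsules unless noted, on the TSF scale, each one-unit score rise means roughly double the sensation intensity.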 Conditions: prolonged daily ingestion (D-Asp 3000 mg/day about a week; bupropion per prescription, following months).
From the text: Some treatment substances were in liquid form when orally ingested. For the Working Examples herein all treatment substances were in capsule form unless otherwise noted in the Tables herein. […] It is contemplated that the mg per kilogram dose of treatment substances and/or the time from ingesting one or more treatment substances may vary from person to person for optimum improvement in treating a sexual dysfunction (e.g., an SRSS including reduced TSF or absent TSF). In some instances, it is contemplated that ingesting one treatment substance may be done at a different time than ingesting another treatment substance to optimize the effect in treating a sexual dysfunction.
For a male, the A score is the highest intensity of TSF just before the first muscle contraction of ejaculation, and the B score is the highest intensity of TSF just after the first muscle contraction of ejaculation.
Data set [4] concerns sexual function. Nature of the data set: Additional sexual effects after ingesting treatment substances (C score different, urination sensitivity, ease to ejaculate). Format: in vivo, human. The following applies: 3000 mg/day, after about a week.

Consider `N[C@H](CC(=O)O)C(=O)O` [D-Asp, D-Aspartic Acid], for which, in data set [1], the “non-sexual side effect / adverse event” value is reported as “a small bump from a varicose vein developed on the penis”. For the same molecule, in data set [2], the D score came to 3.0 and the DE score was determined as 2.0. Also, in data set [3], the A score was 0, the B score is 0, the BM score stood at 0 and the C score turned out to be 0. Further, in data set [4], the “physical arousal (erections)” value was “extremely promoted”.
